Results as given in ChEMBL document CHEMBL5634207, “Helical sulfonyl-γ-AApeptides for the inhibition of HIV-1 fusion and HIF-1α signaling” (RSC Med Chem, 2024).
pIC50, pKd: −log10 of the molar value.

How the values were obtained:
[1] = target: Hypoxia-inducible factor 1-alpha (Homo sapiens, UniProt Q16665); experiment: Binding affinity to HIF-1alpha (unknown origin) assessed as dissociation constant
[2] = system: Human immunodeficiency virus 1; experiment: Antiviral activity against HIV-1 IIIB infected in human MT2 cells incubated overnight by ELISA method; assay type: functional, organism-based; details: Human immunodeficiency virus 1, MT2
[3] = Cytotoxicity against human MT2 cells; assay type: toxicity, cell-based

Sequence of Hypoxia-inducible factor 1-alpha (Q16665 whole entry): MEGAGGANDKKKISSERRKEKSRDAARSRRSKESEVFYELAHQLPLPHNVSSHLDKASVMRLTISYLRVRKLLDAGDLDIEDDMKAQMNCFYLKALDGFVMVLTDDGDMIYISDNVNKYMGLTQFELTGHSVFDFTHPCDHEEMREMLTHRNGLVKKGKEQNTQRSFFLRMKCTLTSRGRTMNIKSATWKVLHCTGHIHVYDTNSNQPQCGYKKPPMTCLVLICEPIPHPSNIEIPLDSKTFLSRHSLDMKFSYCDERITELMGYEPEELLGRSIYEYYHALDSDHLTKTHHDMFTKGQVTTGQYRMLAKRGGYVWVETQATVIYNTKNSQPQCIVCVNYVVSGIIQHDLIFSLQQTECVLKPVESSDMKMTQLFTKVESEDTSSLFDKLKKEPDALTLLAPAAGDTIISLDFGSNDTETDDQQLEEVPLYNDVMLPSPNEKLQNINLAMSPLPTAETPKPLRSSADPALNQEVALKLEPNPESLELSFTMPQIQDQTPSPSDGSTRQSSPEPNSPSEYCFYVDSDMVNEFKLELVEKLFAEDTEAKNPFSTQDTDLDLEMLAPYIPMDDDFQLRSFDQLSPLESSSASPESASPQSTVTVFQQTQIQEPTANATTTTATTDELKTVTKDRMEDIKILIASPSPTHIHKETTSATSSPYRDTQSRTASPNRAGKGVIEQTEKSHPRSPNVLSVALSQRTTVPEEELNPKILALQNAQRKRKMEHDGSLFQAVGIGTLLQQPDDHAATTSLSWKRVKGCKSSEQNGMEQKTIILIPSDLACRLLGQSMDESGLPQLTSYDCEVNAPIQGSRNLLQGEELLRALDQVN

Work on `CC(=O)N[C@@H](CCC(=O)O)C(=O)N[C@@H](CC(C)C)CN(CC(=O)N[C@@H](CC(C)C)CN(CC(=O)N[C@@H](CC(C)C)CN(CC(=O)N[C@@H](C)CN(CC(=O)N[C@@H](C)CN(CC(=O)N[C@@H](CCC(N)=O)C(N)=O)S(=O)(=O)CC(C)C)S(C)(=O)=O)S(=O)(=O)CC(C)C)S(=O)(=O)CCN)S(=O)(=O)CC(C)C` yielded a pKd [1] of 6.29.
In the case of enfuvirtide, the pIC50 [2] was 7.44 and the CC50 [3] was greater than 100000 nM.
For Ac-EELLRALDQV-OH, the pKd [1] was less than 5.00.
`CC(=O)N[C@@H](CCC(=O)O)CN(CC(=O)N[C@@H](CC(C)C)CN(CC(=O)N[C@@H](C)CN(CC(=O)N[C@@H](CCC(=O)O)CN(CC(=O)N[C@@H](CC(C)C)CN(CC(N)=O)S(=O)(=O)CC(C)C)S(C)(=O)=O)S(=O)(=O)CC(C)C)S(=O)(=O)CCN)S(=O)(=O)CC(C)C` gave a pKd [1] of 6.31.
For `CC(=O)N[C@@H](CC(C)C)CN(CC(=O)N[C@@H](CCC(=O)O)CN(CC(=O)N[C@@H](CC(C)C)CN(CC(=O)N[C@@H](CCCCN)CN(CC(=O)N[C@@H](CC(C)C)CN(CC(N)=O)S(=O)(=O)CCN)S(C)(=O)=O)S(C)(=O)=O)S(=O)(=O)CC(C)C)S(C)(=O)=O`, the pKd [1] was 7.01.
